Measured values published in US20020168365A1, “Method for modulating granzyme B uptake and for identifying modulators thereof” (priority 2000, published 2002).
Each block holds one compound with its values, some of them ahead of it.

What was measured:
[1] = system: Jurkat cells; test: TUNEL and annexin V apoptosis assays with grB and AD; assay type: cell-based, human; conditions: for percentage of TUNEL positive cells after incubation with grB and AD / percentage of annexin V positive cells after incubation with grB and AD: with 25 mM monosaccharide; for TUNEL positive cells: 3 hr with pretreated grB and AD
Procedure: (§1) GrB was treated for 1 hr at 37° C. in a phosphate-free (saline) or a high-phosphate (64.5 mM Na2HPO4.7H2O, 21 mM KH2PO4) buffer with calf intestinal alkaline phosphatase (1-10 U), 20 nM of the 37 kDa catalytic subunit of recombinant protein phosphatase-1 (Bagu et al, 1997), or with vehicle control. Cells were then incubated with the treated grB at 4° C. for 30-60 min. For the TUNEL or annexin V assays, cells were then washed twice before incubation at 37° C. with AD.
(§2) M6P and various other monosaccharides at different concentrations were added to cells for 15 min at 4° C. before the addition of labeled grB, or at room temperature before the addition of grB and AD.
(§3) GrB was incubated with sCI-MPR at various concentrations in PBS/0.1% BSA for 30 min at 4° C. Subsequently, cells were incubated with grB/sCI-MPR for 30-60 min at 4° C. and washed twice, before analysis of binding, or before the addition of AD for TUNEL and annexin V analysis.
For the in vitro killing assays, 10 pfu per cell of replication-deficient adenovirus (AD) were added subsequent to grB addition. Analysis of DNA fragmentation by TUNEL analysis has been described previously (Heibein et al., 1999). TUNEL materials (Roche Diagnostics) were used as per the manufacturer's instructions. Phosphatidylserine externalization was measured as previously described (Heibein et al., 1999) using annexin V-FITC (PharMingen). Percent specific TUNEL/annexin V positive cells was calculated as: [(% positive labeling cells with grB and AD-% positive labeling cells without grB and AD)/(100-% positive labeling cells without grB and AD)]×100.
Cells were resuspended at 10^6 cells/ml in 0.1% BSA/DMEM. Adenovirus (10 PFU/cell) and granzyme B (grB) were added directly to the cell suspension. Cells were incubated at 37° C. for 3 h. For staurosporine killing, cells were resuspended at 10^6 cells/ml in their normal growth medium and staurosporine (2.5 μM) was added directly to the cell suspension. Cells were incubated at 37° C. for 2, 4 and 8 h.
(§4) DNA fragmentation was monitored by flow cytometric analysis via the terminal deoxynucleotidyltransferase-mediated dUTP-biotin nick end labeling (TUNEL) method. Flow cytometric analysis was performed on a Becton Dickinson FACScanθ flow cytometer equipped with an argon-ion laser with 15 mW of excitation at 488 nm. Emission wavelengths were detected through the FL1 channel. Data were acquired on 10,000 cells per sample with light scatter signals at linear gain and fluorescence signals at logarithmic gain. Percent specific TUNEL positive cells was calculated as follows: [(% positive labeling cells with grB and AD−% positive labeling cells without grB and AD)/(AD−% positive labeling cells without grB and AD)]×100.
as §4, with “Phosphatidylserine externalization” for “DNA fragmentation”, “monitored using the ApoAlertθ annexin V apoptosis kit (Clontech) according to the protocol provided” for “monitored”, “by” for “by flow cytometric analysis via”, “manufacturer.” for “terminal deoxynucleotidyltransferase-mediated dUTP-biotin nick end labeling (TUNEL) method.”, “Annexin V” for “TUNEL”

[2] = system: Jurkat cells; test: GrB binding assay (flow cytometry, labeled grB at 4° C.); set-up: species or system human; conditions: for effect on grB binding: monosaccharide with labeled grB, 4° C. (FIG. 3A)
Procedure: Cells (1-2×10^5) were washed twice and resuspended in buffer before the addition of grB-biotin or -OG in a final volume of 20 μl for a 30-60 min incubation and washed again twice. In the case of grB-biotin, cells were then incubated with streptavidin-cychrome for 20 min and washed twice. Unless otherwise indicated, ˜25 ng grB-biotin or -OG was used to label cells. All steps of the assay were carried out at 4° C. to prevent intracellular uptake of grB. PBS/0.1% BSA buffer was used throughout the procedure. In some cases, results are presented as the relative MFI, which represents the MFI of the grB-labeled population minus the MFI of the unlabeled population.
as §1, §2, §3

[3] = system: MPRs in all cell lines; test: GrB-OG binding after M6P preincubation (Example 2, FIG. 8); conditions: 20 mM M6P, 37° C., 15 minutes prior to grB-OG
Procedure: Cells (1×10^5) were washed twice and resuspended in buffer before addition of grB-biotin or grB-OG in a final volume of 20 μl for a 30-60 min incubation and washed again twice. In the case of grB-biotin, cells were then incubated with streptavidin-cychrome for 20 min and washed twice. In order to measure cell surface binding, all steps of the binding assay were carried out at 4° C. to prevent intracellular uptake of grB. 0.1% BSA/PBS buffer was used throughout the procedure. All steps of the grB uptake assay were carried out at 37° C. Flow cytometric analysis was performed on a Becton Dickinson FACScanθ flow cytometer equipped with an argon-ion laser with 15 mW of excitation at 488 nm. Emission wavelengths were detected through the FL1 and FL3 channel for grB-OG and grB-biotin, respectively. Data were acquired on 10,000 cells per sample with light scatter signals at linear gain and fluorescence signals at logarithmic gain. Results are presented as the relative MFI, which represents the MFI of the grB-labeled population minus the MFI of the unlabeled population. M6P at 20 mM was added to cells for 15 min at 37° C. before the addition of labeled grB.

[4] = system: MPR^− and CI-MPR^+ target cells; test: CTL killing assays (^3H-thymidine release and ^51Cr-release); assay type: cell-based, murine; conditions: Mus musculus; CTL effectors with targets in the presence of M6P (data not shown); read-out: half-maximal inhibition of target cell DNA fragmentation
Procedure: The ^51Cr- (lysis) and ^3H-thymidine (DNA fragmentation) release assays have been previously described (Darmon et al., 1996). Target cells (1×10^4 cells/well for the ^51Cr-release assay and 5×10^4 cells/well for the ^3H-thymidine-release assay) were incubated with CTL at various E:T ratios (effector:target) in the presence or absence of blocking murine- (1 μg/ml) or human- (200 ng/ml) anti-Fas mAb. Data from one experiment represent the mean of data from triplicate samples. Typically, spontaneous ^51Cr-release and DNA fragmentation was less than 10% and 5%, respectively. Percent specific lysis and DNA fragmentation was calculated as: [(sample cpm−spontaneous cpm)/(total cpm−spontaneous cpm)]×100.

[5] = system: AD containing a β-galactosidase insert; test: Infection of AD containing a β-galactosidase insert; assay type: cell-based
[6] = system: CI-MPR^+ cells; test: GrB uptake assay (confocal microscopy, grB-OG at 37° C.); assay type: cell-based, murine L cells transfected with human CI-MPR; conditions: 20 mM M6P
Procedure: Cells on coverslips were incubated for 20 min at 37° C. with DMEM/0.1% BSA containing 25 ng grB-OG that was untreated, mock-treated, or alkaline phosphatase-treated as described above. For the M6P inhibition studies, cells were treated with 20 mM M6P in DMEM/0.1% BSA for 10 min at 37° C., before the addition of grB-OG, as above. Cells were then washed twice with PBS/0.1% BSA, fixed with 2% paraformaldehyde in PBS, and allowed to dry briefly before the coverslips were mounted and examined by confocal microscopy. Imaging was performed with a Zeiss Axiovertθ 100M LSM510 laser scan microscope and analyzed using LSM510 software.

[7] = molecular target: cell surface MPR on Jurkat cells; test: cell-based or functional assay
[8] = preincubation of grB with soluble CI-MPR, Jurkat cells (data not shown)

Compound: O=C[C@H](O)[C@@H](O)[C@H](O)[C@H](O)COP(=O)(O)O [D-glucose 6-phosphate, reference compound]
percentage of TUNEL positive cells after incubation with grB and AD ([1]; 3 hr, Jurkat cells): 60% | percentage of annexin V positive cells after incubation with grB and AD ([1]; 3 hr, Jurkat cells): 41% | concentrations at which inhibitory effect on grB binding was evident ([2]; labeled grB, 4° C.): above 25 mM | effect on grB binding [2]: slight inhibitory effect

Compound: O=C[C@H](O)[C@@H](O)[C@H](O)[C@H](O)CO [D-glucose, reference compound]
percentage of TUNEL positive cells after incubation with grB and AD ([1]; 3 hr, Jurkat cells): 66% | percentage of annexin V positive cells after incubation with grB and AD ([1]; 3 hr, Jurkat cells): 40% | effect on grB binding [2]: no effect

Compound: O=C[C@@H](O)[C@@H](O)[C@H](O)[C@H](O)CO [D-mannose, reference compound]
percentage of TUNEL positive cells after incubation with grB and AD ([1]; 3 hr, Jurkat cells): 52% | percentage of annexin V positive cells after incubation with grB and AD ([1]; 3 hr, Jurkat cells): 32% | effect on grB binding [2]: no effect

Compound: O=C[C@@H](O)[C@@H](O)[C@H](O)[C@H](O)COP(=O)(O)O [M6P, mannose 6-phosphate]
concentration that markedly reduced in a dose-dependent manner the percentage of TUNEL or annexin V positive cells ([1]; Jurkat cells, grB and AD, 3 hr): ≥ 200 µM | binding of grB to the MPRs [3]: significantly reduced binding | IC50 [4]: > 25 mM | binding of grB to Jurkat cells ([2]; M6P at 20 mM, 4° C.): considerably reduced binding | IC50 ([2]; labeled grB, 4° C., flow cytometry, Jurkat cells (FIG. 3A), read-out: half-maximal inhibition of binding of grB): 1 mM | effect on infection of AD containing a β-galactosidase insert [5]: No effect | uptake of grB (grB detected within the cells) [6]: essentially no grB could be detected within the cells

Compound: dephosphorylated grB: grB treated with calf intestinal alkaline phosphatase in phosphate-free buffer
TUNEL positive cells ([1]; Jurkat cells): Less than 5%

TUNEL positive Jurkat cells after 3 hr with phosphatase-treated grB and AD [7]: < 5%
Compound: dephosphorylated human granzyme B (treated with calf intestinal alkaline phosphatase in phosphate-free buffer) (from UniProt P10144 21-247) (enzyme)

Compound: grB pretreated with alkaline phosphatase in phosphate-containing buffer: control grB treated with phosphatase in a phosphate-containing buffer to inhibit phosphatase activity
TUNEL positive cells ([1]; Jurkat cells): 50%

TUNEL positive Jurkat cells after 3 hr with grB (pretreated with alkaline phosphatase in phosphate-containing buffer) and AD [7]: 50%
Compound: human granzyme B purified from the cytolytic granules of YT-Indy cells (from UniProt P10144 21-247) (enzyme)

Compound: soluble CI-MPR: Human soluble cation-independent mannose 6-phosphate receptor (Valenzano et al., 1995)
concentration that markedly reduced in a dose-dependent manner grB/AD-mediated apoptosis [1, 8]: ≥ 100 µg/mL | concentration that markedly reduced in a dose-dependent manner the cell surface binding of grB [2, 8]: ≥ 100 µg/mL
